In the NIST ThermoML archive (doi:10.1016/j.jct.2012.11.032):
“And” between values parts separate entries of the source, which are not always exact repeats. Equal values may be shown once. Numbers after ± are expanded uncertainties.

Legend:
[1] = 101 kPa, Liquid, Vibrating tube method
[2] = xn = mol fraction of the nth substance listed; settings: 101 kPa, Liquid, x2 = 0; for mass density: Vibrating tube method; for speed of sound: Sing-around technique in a fixed-path interferometer

In the case of `O` [water], the mass density ([1]; 283 K) is reported as 999.754 ± 0.1 kg/m3 and 999.719 ± 0.1 kg/m3 and 999.713 ± 0.1 kg/m3, the mass density ([1]; 288 K) is reported as 999.166 ± 0.1 kg/m3 and the mass density ([1]; 293 K) is reported as 998.283 ± 0.1 kg/m3. The mass density ([1]; 303 K) was 995.75 ± 0.1 kg/m3, the mass density ([1]; 308 K) was 994.099 ± 0.1 kg/m3 and 994.091 ± 0.1 kg/m3 and 994.144 ± 0.1 kg/m3 and the mass density ([1]; 313 K) was 992.27 ± 0.11 kg/m3 and 992.33 ± 0.1 kg/m3.
Work on `O` [water] + CCCCCCCCCCCC[n+]1ccn(C)c1.[Cl-] yielded a mass density ([2]; 283 K) of 999.719 ± 0.1 kg/m3, a mass density ([2]; 308 K) of 994.091 ± 0.1 kg/m3 and a speed of sound ([2]; 313 K) of 1529 ± 1.2 m/s. The mass density ([2]; 313 K) was 992.27 ± 0.1 kg/m3.
Work on `O` [water] + CCCCCCCCCCn1cc[n+](C)c1.[Cl-] yielded a mass density ([2]; 283 K) of 999.713 ± 0.1 kg/m3, a mass density ([2]; 308 K) of 994.099 ± 0.1 kg/m3 and a speed of sound ([2]; 313 K) of 1529 ± 1.2 m/s.
For `O` [water] + CCCCCCCC[n+]1ccn(C)c1.[Cl-], the mass density ([2]; 283 K) was 999.754 ± 0.1 kg/m3, the mass density ([2]; 288 K) was 999.166 ± 0.1 kg/m3 and the mass density ([2]; 293 K) was 998.283 ± 0.1 kg/m3. It also gave a mass density ([2]; 303 K) of 995.75 ± 0.1 kg/m3, a mass density ([2]; 308 K) of 994.144 ± 0.1 kg/m3 and a speed of sound ([2]; 313 K) of 1529 ± 1.2 m/s. It also gave a mass density ([2]; 313 K) of 992.33 ± 0.1 kg/m3.
